For experiment [1], the system named is growth hormone (GH). Nature of the experiment: In vivo synergistic effects on GH release in rats of combinations with Compound B (Group 3) and Compound C (Group 2). The following applies: for synergism with Group 3 Compound B (in words): combination with Compound B (Tyr-DArg-Phe-Gly-NH2). Here is the method: (§1) Immature female Sprague-Dawley rats were obtained from the Charles River Laboratories (Wilmington, Mass.). After arrival they were housed at 25° C. with 14:10 hour light:dark cycle. Water and Purina rat choow were availablle ad libitum. Pups were kept with their mothers until 21 days of age.
(§2) Normal saline with 0.1% gelatin was the vehicle for s.c. and i.v. injections of Compounds 1 and 2 . The unanesthetized rats, weighing 55-65 grams, were injected i.v. with 0.2 ml solution via the tail vein. All animals were sacrificed by quillotine 10 minutes after the final test injection unless specified otherwise. Trunk blood for growth hormone (GH) determinations was collected following decapitation. The blood was allowed to clot, centrifuged and the serum separated from the clot. Serum was kept frozen until the day of sampling for radioimmunoassay (RIA) of growth hormone levels according to the following procedure, as developed by the National Institute of Arthritis, Diabetes and Digestive and Kidney Diseases (NIADDK).
(§3) The mixed reagents are then typically incubated at room temperature (about 25° C.) for about 24 hours prior to addition of a second antibody (e.g., goat or rabbit anti-monkey gamma globulin serum) which binds to and cause precipitation of the complexed growth hormone antiserum. Precipitated contents of the RIA tubes are then analyzed for the number of counts in a specified period of time in a gamma scintillation counter. A standard curve is prepared by plotting number of radioactive counts as a function of growth hormone (GH) level. GH levels of unknowns are then determined by reference to the standard curve.
(§4) Serum GH was measured by RIA with reagents provided by the National Hormone and Pituitary Program. Serum levels are recorded in ng/ml in terms of the rat GH standard with 0.61 IU/mg. Data is recorded as the mean ± standard error of the mean (SEM). Statistical analysis was performed with student's t-test.
Compound 1 and Compound 2 of Examples 1 and 2, respectively, were each combined with the Group 2 and/or Group 3 polypeptides identified in Table 4 below and in the proprotions shown. The combinations were then tested for GH release in rats by the same procedure set forth in Example 3.

The test system of experiment [2] is growth hormone (GH). Description: In vivo GH release in rats (serum GH by RIA, 10 minutes after i.v. injection). Also noted: species or system Sprague-Dawley rats. The following applies: for GH Release: immature female rats, serum GH 10 minutes after injection, mean ± SEM; for potency compared with Compound A (in words) / release of growth hormone when administered to rats via i.v. injection (in words): rats, i.v. injection. As for the experimental part: as §1, §2
Reagents are generally added to the RIA analysis tubes at a single sitting, at refrigerator temperature (about 4° C.) in the following sequence:
(b) "cold" (i.e., non-radioactive) standard or unknown serum sample to be analyzed,
(c) radio-iodinated growth hormone antigen, and
(d) growth hormone antiserum.
Reagent addition is generally carried out so that there is achieved a final RIA tube dilution in the range of about 1:10,000 up to 1:500,000 (antiserum to total liquid volume; vol:vol).
as §3, §4

[3] abbreviates: dose 10 of Column A compound combined with 30 μg Compound B.
[4] abbreviates: dose 30 of Column A compound combined with 30 μg Compound B.

The values that follow come from patent publication US4880777A, “Synthetic peptides having growth hormone releasing activity” (Eastman Kodak Company, priority 1987, dated 1989).

Where “and” joins values, the source holds several entries; their conditions need not be identical. Identical values can stand only once. Where a SMILES comes first, the peptide text is derived from it. Bridges are numbered along the chain shown (N, C = ends). [ ]: non-standard residue; d: D form. Nle = CCCC[C@H](N)C(=O)O

In the case of `CCCC[C@H](NC(=O)[C@@H](NC(=O)[C@H](CC(=O)O)NC(=O)[C@H](CCC(N)=O)NC(=O)[C@H](CC(C)C)NC(=O)[C@H](CC(C)C)NC(=O)[C@H](CCCCN)NC(=O)[C@H](CCCNC(=N)N)NC(=O)[C@H](C)NC(=O)[C@H](CO)NC(=O)[C@H](CC(C)C)NC(=O)[C@H](CCC(N)=O)NC(=O)[C@@H]1CSSC[C@H](NC(=O)[C@H](CC(N)=O)NC(=O)[C@@H](NC(=O)[C@H](Cc2ccccc2)NC(=O)[C@@H](NC(=O)[C@H](C)NC(=O)[C@H](CC(=O)O)NC(=O)[C@H](C)NC(=O)[C@@H](N)Cc2ccc(O)cc2)[C@@H](C)CC)[C@@H](C)O)C(=O)N[C@@H](Cc2ccc(O)cc2)C(=O)N[C@@H](CCCNC(=N)N)C(=O)N[C@@H](CCCCN)C(=O)N[C@@H](C(C)C)C(=O)N[C@@H](CC(C)C)C(=O)N1)[C@@H](C)CC)C(=O)N[C@@H](CO)C(=O)N[C@@H](CCCNC(=N)N)C(N)=O` [Compound 2] (H-YADAIFTNCYRKVLCQLSARKLLQDI[Nle]SR-NH2; disulfide 9-15), the “synergism with Group 3 Compound B (in words)” value in experiment [1] was “act synergistically”. For the same compound, the “GH Release by Compound in Column A” value is 62 ± 8 ng/mL in experiment [1] (dose 3, compound alone); 99 ± 11 ng/mL and 105 ± 29 ng/mL in experiment [1] (dose 10, compound alone); 132 ± 24 ng/mL in experiment [1] (dose 30, compound alone). Moreover, the “GH Release of Compound in Column A & 30 μg Compound B” value was 1689 ± 264 ng/mL in experiment [1] (dose 3 of Column A compound combined with 30 μg Compound B); 3733 ± 515 ng/mL and 2241 ± 323 ng/mL in experiment [1] (setting [3]); 2652 ± 560 ng/mL in experiment [1] (setting [4]). For the same compound, the “GH Release” value in experiment [2] (3 μg i.v.) amounted to 62 ± 8 ng/mL; in experiment [2] (10 μg i.v.) it was 99 ± 11 ng/mL; in experiment [2] (30 μg i.v.), 132 ± 24 ng/mL. The “potency compared with Compound A (in words)” value in experiment [2] is “potencies similar to Compound A”. The “release of growth hormone when administered to rats via i.v. injection (in words)” value in experiment [2] is on record as “highly active”.

For `CCCC[C@H](NC(=O)[C@@H](NC(=O)[C@H](CC(=O)O)NC(=O)[C@H](CCC(N)=O)NC(=O)[C@H](CC(C)C)NC(=O)[C@H](CC(C)C)NC(=O)[C@H](CCCCN)NC(=O)[C@H](CCCNC(=N)N)NC(=O)[C@H](C)NC(=O)[C@H](CO)NC(=O)[C@H](CC(C)C)NC(=O)[C@H](CCC(N)=O)NC(=O)[C@H](CS)NC(=O)[C@H](CC(C)C)NC(=O)[C@@H](NC(=O)[C@H](CCCCN)NC(=O)[C@H](CCCNC(=N)N)NC(=O)[C@H](Cc1ccc(O)cc1)NC(=O)[C@H](CS)NC(=O)[C@H](CC(N)=O)NC(=O)[C@@H](NC(=O)[C@H](Cc1ccccc1)NC(=O)[C@@H](NC(=O)[C@H](C)NC(=O)[C@H](CC(=O)O)NC(=O)[C@H](C)NC(=O)[C@@H](N)Cc1ccc(O)cc1)[C@@H](C)CC)[C@@H](C)O)C(C)C)[C@@H](C)CC)C(=O)N[C@@H](CO)C(=O)N[C@@H](CCCNC(=N)N)C(N)=O` [Compound 1] (H-YADAIFTNCYRKVLCQLSARKLLQDI[Nle]SR-NH2), the “synergism with Group 3 Compound B (in words)” value in experiment [1] is “act synergistically”. Further, the “GH Release by Compound in Column A” value in experiment [1] (dose 10, compound alone) was 145 ± 41 ng/mL and 77 ± 10 ng/mL; in experiment [1] (dose 30, compound alone), 151 ± 33 ng/mL; in experiment [1] (dose 100, compound alone), 374 ± 94 ng/mL. Moreover, the “GH Release of Compound in Column A & 30 μg Compound B” value was 3314 ± 275 ng/mL and 2078 ± 395 ng/mL in experiment [1] (setting [3]); 2875 ± 472 ng/mL in experiment [1] (setting [4]); 2328 ± 297 ng/mL in experiment [1] (dose 100 of Column A compound combined with 30 μg Compound B). Besides, in experiment [1] (dose 10 of Column A compound combined with 30 μg Compound B and 10 μg Compound C), the “GH Release of Compound in Column A & 30 μg Compound B & 10 μg Compound C” value was determined as 4947 ± 366 ng/mL. The “GH Release” value in experiment [2] (10 μg i.v.) turned out to be 145 ± 41 ng/mL; in experiment [2] (30 μg i.v.), 151 ± 33 ng/mL; in experiment [2] (100 μg i.v.) it was 374 ± 94 ng/mL. Besides, the “potency compared with Compound A (in words)” value in experiment [2] is reported as “potencies similar to Compound A”. Also, in experiment [2], the “release of growth hormone when administered to rats via i.v. injection (in words)” value is “highly active”.
